# Publication PMC12040169 (PLOS Biology, 2025)
# Assay: in vitro
# Conditions: human, hela cells, % viability
row,SMILES,"viability at 28.5 h, 10 µM [%]"
1,CCCCn1c(SCCC(=O)Nc2ccccc2C(=O)c2ccccc2)n[nH]c1=O [CBK296693],87.3
2,Cc1ccc(NC(=O)c2ccccc2NS(=O)(=O)c2cccc(C(=O)O)c2)cc1 [CBK296695],122
3,Cc1ccc(C)c(-c2csc(NS(=O)(=O)c3cccc(C(=O)O)c3)n2)c1 [CBK296696],86.7
4,O=C(O)c1cccc(S(=O)(=O)Nc2ccccc2C(=O)NCc2ccccc2)c1 [CBK296697],106
5,Cc1cc(C)c(-c2csc(NS(=O)(=O)c3cccc(C(=O)O)c3)n2)cc1C [CBK296698],118
6,Cc1nn(-c2ccc(F)cc2)c(C)c1C(=O)NCc1ccnc(N2CCCC2)c1 [CBK296700],93.3
7,COCCN(CCOC)C(=O)COc1c(Cl)cc(C(=O)O)cc1Cl [CBK296704],92.3
8,CC(C)C(NC(=O)c1ccc(CS(C)(=O)=O)cc1)c1ccc(C(C)(C)C)cc1 (stereo not shown) [CBK296705],102
9,O=C(O)c1sccc1S(=O)(=O)NCc1ccc(COCC(F)(F)F)cc1 [CBK296706],110
10,O=C(O)c1sccc1S(=O)(=O)NCc1ccc(Cn2cccn2)cc1 [CBK296707],99.4
11,CN(Cc1c(F)cccc1Cl)C(=O)CSc1nc(CC(=O)O)cs1 [CBK296708],95.3
12,O=C(c1cccc(S(=O)(=O)Nc2ccc(Br)cc2)c1)N1CCCC1 [CBK296709],67.4
13,O=C(O)c1cc(S(=O)(=O)Nc2ccc3nc(N4CCCC4)sc3c2)ccc1Br [CBK296710],91.5
14,O=C(Nc1ccnn1Cc1cc(Br)cs1)c1ccc2ncsc2c1 [CBK296713],105
15,CN(Cc1nc2ccccc2c(=O)[nH]1)Cc1cc2c(cc1Br)OCCO2 [CBK296715],108
16,CCN(CC(=O)Nc1ccc2c(c1)OCCO2)S(=O)(=O)c1ccsc1C(=O)O [CBK296717],95.5
17,CC(c1ccccc1)N(C)C(=O)Cn1c(-c2cccs2)n[nH]c1=S (stereo not shown) [CBK296718],95.6
18,CN(CCOc1ccc(Cl)cc1)C(=O)COc1cc2ccccc2cc1C(=O)O [CBK296720],108
19,COc1cc(C=CC(=O)O)ccc1OCC(=O)NCC(C)C [CBK296721],107
20,CC(Oc1ccc(Br)cc1)C(=O)Nc1nc2c(s1)CCC2 (stereo not shown) [CBK296723],84.8
21,O=C(Nc1nccs1)C1CCCN(C(=O)c2ccco2)C1 (stereo not shown) [CBK296725],98.7

row,SMILES,"viability at 28.5 h, 10 µM [%]"
1,O=C(O)c1cc(NS(=O)(=O)c2ccc3c(c2)OCCCO3)ccc1F [CBK296731],104
2,CCCCn1c(SCC(=O)N(C)Cc2cnn(-c3ccccc3)c2)n[nH]c1=O [CBK296732],106
3,Cc1cccc(-c2n[nH]c(=S)n2CCC(=O)Nc2ccc(N3CCCC3=O)c(C)c2)c1 [CBK296733],89.1
4,COc1ccc(CC(=O)Nc2cccc(OC(F)(F)F)c2)cc1OC [CBK296734],88.1
5,CCOc1ccc(-c2nc(CSc3n[nH]c(=O)n3CCc3ccccc3)cs2)cc1 [CBK296735],94.7
6,CCCCn1c(SCC(=O)NCC2(c3ccc4c(c3)OCCO4)CCCC2)n[nH]c1=O [CBK296736],99.6
7,CSCc1nnc(SCc2ccccc2Oc2ccccc2)o1 [CBK296743],99.2
8,CC(=O)c1cc(C(=O)NCc2ccc(C)cc2)n(C)c1 [CBK296750],85.1
9,CC(C)c1cccc(N2CC(C(=O)Nc3cc(S(C)(=O)=O)ccc3F)CC2=O)c1 (stereo not shown) [CBK296751],96.8
10,CC(=O)Nc1ccc(NC(=O)Cc2n[nH]c(=S)n2Cc2ccccc2)cc1 [CBK296754],91.1
11,Cc1noc2nc(-c3ccccc3F)cc(C(=O)N3CCCC3c3nnc4ccccn34)c12 (stereo not shown) [CBK296756],93.2
12,CCNc1nc2ccccn2c(=O)c1C=C1SC(=S)N(CCCC(=O)O)C1=O [CBK296757],87.9
13,COC(=O)c1ccc(NC(=O)c2oc3ccc(Br)cc3c2C)cc1 [CBK296758],95.7
14,O=S(=O)(Nc1ccc(N2CCOCC2)cc1)c1cccc(OC(F)(F)F)c1 [CBK296759],95.1
15,COc1ccc(CNC(=O)c2cc(O)nc3ccccc23)cc1OC [CBK296763],90.2
16,O=C(Cn1cnc2ccc(F)cc2c1=O)N1Cc2ccccc2C(c2ccccc2)C1 (stereo not shown) [CBK296767],95.1
17,COc1cc2c(cc1OC)CN(S(=O)(=O)c1cc(C(=O)O)ccc1Cl)CC2 [CBK296923],96
18,CC(Sc1nc(N)cc(N)n1)C(=O)c1ccc(F)c(F)c1 (stereo not shown) [CBK296928],94.7
19,CCOC(=O)c1c(-c2ccc(Cl)cc2)csc1NC(=O)CCCC(=O)O [CBK296929],91
20,O=C(O)CCCC(=O)NCCc1ccc(Cl)cc1Cl [CBK296930],88.8
21,CCOC(=O)c1ccc(NC(=O)Cc2c(C(=O)O)nnn2-c2cccc(C(F)(F)F)c2)cc1 [CBK296932],106

row,SMILES,"viability at 28.5 h, 10 µM [%]"
1,O=C(Cn1nnc2ccccc2c1=O)NC(Cc1ccccc1)c1ccccc1 (stereo not shown) [CBK296933],96.6
2,CCOc1ncccc1C(=O)N(Cc1nnc(-c2ccc(Cl)cc2)o1)C1CC1 [CBK296934],96.3
3,CC(C)c1ccc(S(=O)(=O)N2CCN(c3ncnc4c3oc3ccccc34)CC2)cc1 [CBK296936],84.9
4,O=C(CCc1nc2ccccc2c(=O)[nH]1)N1CCN(Cc2ccc(Cl)s2)CC1 [CBK296937],83.9
5,NC(=O)C1CCN(C(=O)c2cc3c(=O)n4ccccc4nc3s2)CC1 [CBK296938],89.9
6,COC(=O)c1c(COC(=O)c2cnc(Cl)c(Cl)c2)nc2ccccc2c1C [CBK296940],102
7,COc1cc(C=Cc2cc(C(=O)O)c3ccccc3n2)cc(Cl)c1OC(C)C [CBK296941],93.7
8,Cc1nn(Cc2ccccc2)c(Cl)c1C=Cc1cc(C(=O)O)c2ccccc2n1 [CBK296942],95.4
9,CCN(c1ccccc1)S(=O)(=O)c1ccc(C(=O)NC(C)c2ccc3c(c2)OCCO3)cc1 (stereo not shown) [CBK296945],83.5
10,COc1ccc(S(=O)(=O)Nc2cc(C(=O)O)ccc2C)cc1NC(C)=O [CBK296946],93.4
11,O=C(CCn1c(CO)nc2ccccc21)c1ccccc1 [CBK296947],102
12,CC(C)NS(=O)(=O)c1ccc(NS(=O)(=O)c2cc(C(=O)O)ccc2Cl)cc1 [CBK296951],99.5
13,CCOc1cc(C=Cc2cc(C(=O)O)c3ccccc3n2)ccc1OC(F)F [CBK296952],86.3
14,COc1ccc(C=Cc2cc(C(=O)O)c3ccccc3n2)cc1OC(F)F [CBK296953],85.9
15,Cc1cc(C)cc(N(CCC#N)C(=O)CSc2nnc[nH]2)c1 [CBK296955],101
16,O=c1cc(CO)oc(C(Nc2ccccn2)c2ccsc2)c1O (stereo not shown) [CBK296956],106
17,Cc1sc(NC(=O)c2ccccc2)c(C(Nc2ccccn2)c2ccc(F)cc2)c1C (stereo not shown) [CBK296957],89.7
18,CCC(C)NC(=O)CSc1nnc(-c2cccs2)n1CC (stereo not shown) [CBK296960],86.3
19,CC(=O)c1ccc(N2CCN(S(=O)(=O)c3ccc(O)c(C(=O)O)c3)CC2)cc1 [CBK296961],94
